Data on 25 compounds can be found in ChEMBL document CHEMBL1201862, “PubChem BioAssay data set” (2004).

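Where inhibition never reached the appropriate level, the endpoint shown equals the highest concentration tested. Otherwise, values were interpolated linearly from a five-concentration, 48-hour dose response in 96-well plates. GI50 marks 50% less growth.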 Calls of active or inactive are those of the source. Rule as the data show it: active = GI50 up to about 1.1 µM and inactive = higher.

Some test systems named below: KM-20L2; M19-MEL; XF498; SNB-78; HOP-18; DLD-1; LXFL 529; DMS-114; RXF 631.
Common to all, as to assay: NCI-60 cell line screen, 48 h

As to `CN[C@@H]1C[C@H]2O[C@@](C)([C@@H]1OC)n1c3ccccc3c3c4c(c5c6ccccc6n2c5c31)C(=O)N[C@@H]4O`, the GI50 in the assay with KM-20L2 is 0.104 µM (active); in the assay on M19-MEL, 0.135 µM (active); with XF498, 0.0356 µM (active); with SNB-78, 0.0344 µM (active); in the assay on HOP-18 it was 0.01 µM (active); in the assay with DLD-1, 0.149 µM (active). The GI50 with LXFL 529 was 0.119 µM (active); in the assay on DMS-114, 0.104 µM (active).

Take `c1cnc2c3[nH]cc4[nH]c5ccccc5c4c-3nc2c1`: the GI50 with KM-20L2 is 76.2 µM (inactive); in the assay with M19-MEL it was > 100 µM (inactive); in the assay with XF498 it was > 100 µM (inactive); with SNB-78, > 100 µM (inactive); in the assay with DLD-1, 37.8 µM (inactive); with LXFL 529, 68.1 µM (inactive). For the same compound, in the assay with DMS-114, the GI50 was > 100 µM (inactive).

For the compound `Cc1[nH]c2ccccc2c1/C=C/c1c(C)[nH]c2ccccc12`, the GI50 with KM-20L2, in the assay with M19-MEL, in the assay with XF498, in the assay with SNB-78, with DLD-1 and in the assay on LXFL 529 was > 100 µM (inactive) in each case. For the same compound, in the assay on DMS-114, the GI50 was > 100 µM (inactive).

For `CCN(CC)Cc1c(/C=C\c2cc(OC)c(OC)c(OC)c2)ccc(OC)c1O`, the GI50 in the assay with KM-20L2 was 3.52 µM (inactive); with M19-MEL, 3.22 µM (inactive); in the assay on XF498, 4.08 µM (inactive); in the assay with SNB-78, 4.17 µM (inactive); in the assay with HOP-18 it was > 100 µM (inactive); in the assay on DLD-1, 4.09 µM (inactive). The results for the GI50 in the assay on LXFL 529 and with DMS-114 were 5.53 µM (inactive) and 2.23 µM (inactive), respectively.

With `Fc1cccc(C2SCc3nc4ccccc4n32)c1` (configuration not stated), the GI50 with RXF 631 is 32.7 µM (inactive); with M19-MEL it was 51.4 µM (inactive); in the assay with SNB-78 it was 30.6 µM (inactive); with DLD-1, 43.8 µM (inactive); in the assay on LXFL 529 it was 25.2 µM (inactive); in the assay with DMS-114 it was 26.3 µM (inactive).

Take `CCCCC(=O)OC[n+]1ccc2c(C)c3[nH]c4ccc(OC)cc4c3c(C)c2c1`: the GI50 with KM-20L2 was 0.377 µM (active); with RXF 631, 0.345 µM (active); in the assay on M19-MEL, 0.684 µM (active); in the assay with SNB-78, 1.18 µM (inactive); in the assay with DLD-1, 0.32 µM (active); in the assay with LXFL 529, 0.619 µM (active). Further, in the assay with DMS-114, the GI50 was 0.705 µM (active).

On to `CN1NC(c2ccccc2)=C(C#N)C(=O)CC1c1ccccc1Cl` (configuration not stated), for which the GI50 in the assay with RXF 631 was > 100 µM (inactive); with XF498, > 100 µM (inactive); in the assay on SNB-78, > 100 µM (inactive); in the assay on HOP-18, 67.3 µM (inactive); in the assay with DLD-1, 61.4 µM (inactive); with LXFL 529, > 100 µM (inactive). In addition, the GI50 in the assay with DMS-114 is > 100 µM (inactive).

With `Nc1nc(S)nc(C(=O)Nc2nccs2)c1-c1ccccc1`, the GI50 in the assay on KM-20L2, with M19-MEL, in the assay with XF498, in the assay on SNB-78, in the assay on HOP-18 and in the assay on DLD-1 was > 100 µM (inactive) each time. Moreover, the GI50 in the assay on LXFL 529 and with DMS-114 was > 100 µM (inactive) each time.

For `O=[N+]([O-])c1ccc(-c2noc(-c3ccc(Cl)cc3)c2C2=NCCN2)cc1`, the GI50 is > 100 µM (inactive) with KM-20L2; > 100 µM (inactive) in the assay on M19-MEL; > 100 µM (inactive) in the assay with XF498; > 100 µM (inactive) with SNB-78; 94.2 µM (inactive) in the assay with HOP-18; > 100 µM (inactive) in the assay on DLD-1. Further, in the assay with LXFL 529, the GI50 is > 100 µM (inactive).

Turning to `COc1ccc2c(c1)OC[C@@H]1c3cc4c(cc3O[C@H]21)OCO4`, the GI50 in the assay with KM-20L2 is > 100 µM (inactive); with XF498, > 100 µM (inactive); in the assay on SNB-78 it was > 100 µM (inactive); in the assay with HOP-18, 37.2 µM (inactive); in the assay on DLD-1, > 100 µM (inactive); with LXFL 529, > 100 µM (inactive). Besides, in the assay with DMS-114, the GI50 is > 100 µM (inactive).

As for `Cc1ccc2sc3cc(=O)cc(C)c-3nc2c1`, the GI50 is > 100 µM (inactive) with KM-20L2; 54.1 µM (inactive) with RXF 631; 16 µM (inactive) with M19-MEL; > 100 µM (inactive) with SNB-78; > 100 µM (inactive) with HOP-18; 76 µM (inactive) with DLD-1. In addition, the GI50 was 28 µM (inactive) with LXFL 529 and 19.6 µM (inactive) with DMS-114.

`C=CC(=O)c1ccc2c(c1)OCCOCCOCCOCCOCCO2`: the GI50 with KM-20L2 is 30.2 µM (inactive); with M19-MEL, 17.8 µM (inactive); in the assay on XF498 it was 15.3 µM (inactive); with SNB-78, 17.7 µM (inactive); in the assay with HOP-18 it was 16.1 µM (inactive); in the assay on DLD-1 it was 16.4 µM (inactive). The results for the GI50 in the assay with LXFL 529 and in the assay on DMS-114 were 16.9 µM (inactive) and 19.3 µM (inactive), respectively.

As to `N#C/C(=C1\OC(=O)C(c2ccc(Br)cc2)=C1O)c1ccc(Br)cc1`, the GI50 is 17.5 µM (inactive) in the assay on KM-20L2; 15.4 µM (inactive) with RXF 631; 14.6 µM (inactive) in the assay on M19-MEL; 12.9 µM (inactive) in the assay on XF498; 12.3 µM (inactive) in the assay on SNB-78; 13.5 µM (inactive) with HOP-18. Also, the GI50 in the assay on DLD-1 was 15.8 µM (inactive); with LXFL 529 it was 10.2 µM (inactive); with DMS-114, 12.8 µM (inactive).

For the compound `O=C1c2ccccc2C(=O)N1C/C=N/NS(=O)(=O)c1ccc(Br)cc1`, the GI50 in the assay with KM-20L2, in the assay with RXF 631, in the assay on M19-MEL, with XF498, with SNB-78 and with HOP-18 was > 100 µM (inactive) in each case. Moreover, the figures for the GI50 with DLD-1, in the assay with LXFL 529 and in the assay on DMS-114 were > 100 µM (inactive), > 100 µM (inactive) and 51.6 µM (inactive), respectively.

As to `Cc1c(NC(=O)C(C)(C)Br)c(=O)oc2c(C)c3occc(=O)c3cc12`, the GI50 in the assay on KM-20L2 is 41.4 µM (inactive); in the assay with RXF 631, 48.1 µM (inactive); in the assay on XF498, 27.3 µM (inactive); in the assay on DLD-1, 59 µM (inactive); with LXFL 529 it was 42.9 µM (inactive); with DMS-114 it was 44.1 µM (inactive).

On to `CC(=O)OC1CCn2nnc(CO)c21` (configuration not stated), for which the GI50 in the assay on KM-20L2, in the assay with M19-MEL, in the assay with XF498, with SNB-78, in the assay on HOP-18 and in the assay with DLD-1 was > 100 µM (inactive) throughout. Moreover, the GI50 in the assay on LXFL 529 and in the assay with DMS-114 was > 100 µM (inactive) throughout.

Turning to `COc1cc2c(oc(=O)c3c4oc([Si](C)(C)C)cc4cc(OC)c23)c2cccc(OCc3ccccc3)c12`, the GI50 with KM-20L2 was > 66.1 µM (inactive); in the assay with M19-MEL, 48.2 µM (inactive); with XF498, 8.32 µM (inactive); in the assay with SNB-78 it was 17 µM (inactive); in the assay with HOP-18, 28 µM (inactive); in the assay on DLD-1, 55 µM (inactive). For the same compound, the results for the GI50 with LXFL 529 and with DMS-114 were 27.2 µM (inactive) and 50.6 µM (inactive), respectively.

Regarding `Cc1cccc(-c2nc3c(C(=O)NCCN(C)C)cccc3[nH]2)c1`, the GI50 is 0.394 µM (active) in the assay with RXF 631; 1.67 µM (inactive) with M19-MEL; 3.49 µM (inactive) in the assay with SNB-78; 0.605 µM (active) with HOP-18; 0.407 µM (active) with DLD-1; 1.24 µM (inactive) in the assay on DMS-114.

In the case of `COC(=O)CCC(=O)N1Cc2cc(C)ccc2N(C(=O)CCC(=O)OC)Cc2cc(C)ccc21`, the GI50 in the assay on M19-MEL, in the assay with XF498, with SNB-78, with HOP-18 and in the assay with DLD-1 was > 100 µM (inactive) in each case.

Take `O=c1[nH]c(=O)n(C2OC(CO)C(N(O)Cc3ccc(F)cc3)C2O)cc1Br` (configuration not stated): the GI50 with KM-20L2, with M19-MEL, in the assay on SNB-78, with DLD-1, in the assay on LXFL 529 and in the assay with DMS-114 was > 100 µM (inactive) throughout.

As for `O=C(Nc1nnc(S)[nH]1)C(=O)C(C(=O)c1ccc2ccccc2c1)C1OC(=O)c2ccccc21` (configuration not stated), the GI50 with KM-20L2 is 35.3 µM (inactive); with RXF 631, 21.8 µM (inactive); in the assay with M19-MEL it was 13.8 µM (inactive); with XF498, 2.09 µM (inactive); in the assay on SNB-78, 29.8 µM (inactive); in the assay on HOP-18, 0.305 µM (active). Further, the figures for the GI50 in the assay with DLD-1, in the assay with LXFL 529 and with DMS-114 were 19.5 µM (inactive), 12.1 µM (inactive) and 12.2 µM (inactive), respectively.

In the case of `CCOC(=O)C(C)Sc1nnc(COc2ccc(Cl)cc2)n1-c1ccccc1` (configuration not stated), the GI50 was 18.5 µM (inactive) in the assay with KM-20L2; 19.1 µM (inactive) with M19-MEL; 26.1 µM (inactive) in the assay with SNB-78; 49 µM (inactive) in the assay on HOP-18; 19.8 µM (inactive) in the assay on DLD-1; 16.4 µM (inactive) in the assay on LXFL 529.

For the compound `CCOC(=O)Cn1c(=O)[nH]c(=O)c2[nH]cnc21`, the GI50 in the assay on KM-20L2, in the assay with RXF 631, in the assay with M19-MEL, in the assay on SNB-78, in the assay on HOP-18 and with DLD-1 was > 100 µM (inactive) throughout. In addition, the GI50 in the assay on LXFL 529 and in the assay with DMS-114 was > 100 µM (inactive) in each case.

Consider `CS(=O)(=O)OCCCOS(C)(=O)=O`, for which the GI50 with KM-20L2, with M19-MEL, in the assay with XF498, in the assay with SNB-78, in the assay on HOP-18 and with DLD-1 was > 100 µM (inactive) in each case. Also, the GI50 with LXFL 529 and with DMS-114 was > 100 µM (inactive) each time.

As for `COC(=O)CC(=O)OC1C[C@@H]2CCC3C(C)(C)CCC[C@]3(C)C23CC[C@@]1(C)C3` (some centres not stated), the GI50 in the assay with KM-20L2 was 20 µM (inactive); in the assay on M19-MEL it was 19.1 µM (inactive); in the assay with XF498, 19 µM (inactive); in the assay on SNB-78, 19.6 µM (inactive); with DLD-1 it was 18.8 µM (inactive); in the assay on DMS-114, 20.2 µM (inactive).
